A word on the pIC50: it is the negative decadic logarithm of the IC50, by convention in mol/L.

This assay concerns the target T1, human GnRH receptors (Homo sapiens, UniProt P30968).
T1 construct: expressed in transfected cells; host or cells: CHO-K1
T1 sequence (P30968 1-328): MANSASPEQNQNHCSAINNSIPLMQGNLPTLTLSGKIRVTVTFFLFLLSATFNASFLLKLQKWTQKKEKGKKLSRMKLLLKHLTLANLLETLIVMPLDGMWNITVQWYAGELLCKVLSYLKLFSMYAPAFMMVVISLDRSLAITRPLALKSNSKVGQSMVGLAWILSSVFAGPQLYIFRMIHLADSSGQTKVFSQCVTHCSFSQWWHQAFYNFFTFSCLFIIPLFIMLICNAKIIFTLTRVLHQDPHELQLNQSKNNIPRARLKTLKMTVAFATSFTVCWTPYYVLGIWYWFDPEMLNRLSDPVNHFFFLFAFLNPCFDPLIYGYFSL
Nature of the assay: Human GnRH receptor functional assay (intracellular calcium release). To be noted: CHO-K1 cells expressing human GnRH receptors; block of GnRH (EC80)-induced calcium release; 20 min preincubation. The class given is cell-based. As to the method: Human GnRH Receptor Functional Assay
GnRH-receptor antagonists may be functionally assessed by measurement of change in intracellular calcium levels induced by Gαq mediated increase in IP3 levels. The ability of compounds to block the intracellular release of calcium by GnRH in CHO-K1 cells expressing human GnRH receptors is determined as a measure of the compound's antagonist activity in vitro. Approximately 30,000 cells per assay well (half well 96 well assay plate—Corning) are seeded in normal culture medium. Twenty four hours after seeding the cells are loaded with a calcium sensitive fluorescent dye by replacing the culture medium with assay buffer (1×Hanks buffered saline, 25 mM HEPES, 0.1% w/v fatty acid free BSA, pH7.4) containing 2.5 mM probenecid and 1×Calcium Plus reagent (Molecular) Devices. Cells are incubated at 37° C. for 1 hour to allow for dye uptake. […] After incubation with test compounds the assay plate is placed in a Flexstation II (Molecular Devices) and GnRH is added at the determined EC80 concentration (final). Ligand-dependent changes in intracellular calcium levels are determined by measuring changes in fluorescence of the dye at […] following excitation at 485 nm. Percentage inhibition curves are plotted using 4-parameter fit algorithm and IC50 values calculated for each compound.

pIC50: −log10 of the molar value.

In the case of `COc1nc(N2CCC(N(C)C)C2)nc(OC)c1NC(=O)c1ccc(Oc2cc([Si](C)(C)C)ccc2C)o1` (stereo not shown) [Example 2, N-(2-(3-(dimethylamino)pyrrolidin-1-yl)-4,6-dimethoxypyrimidin-5-yl)-5-(2-methyl-5-(trimethylsilyl)phenoxy)furan-2-carboxamide], the pIC50 was 6.80.

Source of the values: patent US20080261918A1, “Silicon Compounds and Their Use” (priority 2003, published 2008).
